From US20230135093A1, “TRIAZOLYL DERIVATIVES AS GABA A ALPHA5 PAM” (Hoffmann-La Roche Inc., priority 2020, published 2023)

Legend:
h-GABA-A α5β3γ2 [1] = biological target: T1, h-GABA-A α5β3γ2 (Homo sapiens, UniProt P18507+P31644); assay: Two-electrode voltage clamp electrophysiology in Xenopus oocytes expressing GABAA receptors (modulation of GABA EC20 current); format: cell-based; settings: Table 1; for Efficacy (GABA) %: % modulation of GABA EC20 = 100*(Fold increase-1); for Fold increase h-GABA-A α5β3γ2 oocyte: Xenopus oocytes, GABA EC20, test compound at approximatively 30 fold its Ki
T1 construct: expressed in transfected cells; host or cells: Xenopus laevis oocytes, micro-injected with subunit RNA
Protocol: Xenopus laevis oocytes at maturation stages V-VI were used for the expression of cloned mRNA encoding GABAA receptor subunits. Oocytes ready for RNA micro-injection were bought from Ecocyte, Castrop-Rauxel, Germany and stored in modified Barth's medium (composition in mM: NaCl 88, KCl 1, NaHCO3 2.4, HEPES 10, MgSO4 0.82, CaNO3 0.33, CaCl2 0.33, pH=7.5) at 20° C. until the experiment.
Oocytes were plated in 96-well plates to be used in an automated instrument (Robo-ocyte, MultiChannelSystems, Reutlingen, Germany) for microinjection and electrophysiological recordings. Approximately 50 nl of an aqueous solution containing the RNA transcripts for the subunits of the desired GABAA receptor was injected into each oocyte. RNA concentrations ranged between 0.3 and 16 ng/μl/subunit and were adjusted in pilot experiments to obtain GABA responses of a suitable size and a maximal effect of the reference modulator, Beta-CCM (3-CCM), a betacarboline negative allosteric modulator (NAM) at the GABAA receptor benzodiazepine (BZD) binding site or Midazolam, a benzodiazepine positive allosteric modulator (PAM) at the GABAA receptor benzodiazepine (BZD) binding site. The concentration of the γ2 subunit encoding RNA usually was 5- to 10-fold higher than the RNAs encoding the other subunits. Oocytes were kept in modified Barth's medium (composition in mM: NaCl 88, KCl 1, NaHCO3 4, HEPES 10, MgSO4 0.82, CaNO3 0.33, CaCl2 0.33, pH=7.5) at 20° C. until the experiment.
Electrophysiological experiments were performed on days 3 to 5 after the micro-injection of mRNA. During the experiment the oocytes were constantly superfused by a solution containing (in mM) NaCl 90, KCl 1, HEPES 5, MgCl2 1, CaCl2 1 (pH 7.4). Oocytes were impaled by two glass microelectrodes (resistance: 0.4 MQ) which were filled with a solution containing KCl 1M+K-acetate 1.5 M and voltage-clamped to −80 mV. The recordings were performed at room temperature using the Roboocyte two-electrode voltage clamp system (Multichannelsystem). After an initial equilibration period of 1.5 min GABA was added for 1.5 min at a concentration evoking approximately 20% of a maximal current response (EC20). After another rest interval of 2.5 min GABA was again added evoking a response of similar amplitude and shape. 0.5 min after the onset of this second GABA application the test compound, at a concentration corresponding to approximatively 30 fold its Ki, was added while GABA was still present. Current traces were recorded at a digitization rate of 10 Hz during and shortly before and after the GABA application.
Each compound and concentration was tested on at least 3 oocytes. Different oocytes were used for different compound concentrations. β-CCM, a negative allosteric modulator, or Midazolam, a positive allosteric modulators, were tested on a few (3-6) oocytes on each 96-well plate for a positive control at a maximally effective. β-CCM inhibited the GABA-evoked current by approximatively 50% (Fold increase 0.5), while Midazolam potentiated the GABA-induced current by approximatively 150% (Fold increase 2.5).
For the analysis, the digitized current traces of the first and second GABA response were superimposed and, if necessary, rescaled to equal maximal amplitudes. The ratio between the two responses during the time interval of test compound application was calculated point by point. The extremum of the resulting “ratio trace” was taken as the efficacy (“Fold increase”) of the compound expressed as “% modulation of GABA EC20” (100*(Fold increase-1)).

h-GABA-A α5β3γ2 [2] = biological target: T1, h-GABA-A α5β3γ2; assay: [3H]flumazenil competition binding assay on membranes of HEK293 cells expressing GABAA receptors; settings: Table 1; displacement of [3H]-Flumazenil (0.5 nM), HEK293 cells expressing human receptors, means of two determinations
Protocol: The affinity of compounds at GABAA receptor subtypes was measured by competition for [3H]flumazenil (85 Ci/mmol; Roche) binding to HEK293 cells expressing rat (stably transfected) or human (transiently transfected) receptors of composition α1β3γ2, α2β3γ2, α3β3γ2 and α5β3γ2.
Cell pellets were suspended in Krebs-tris buffer (4.8 mM KCl, 1.2 mM CaCl2, 1.2 mM MgCl2, 120 mM NaCl, 15 mM Tris; pH 7.5; binding assay buffer), homogenized by polytron for ca. 20 sec on ice and centrifuged for 60 min at 4° C. (50000 g; Sorvall, rotor: SM24=20000 rpm). The cell pellets were resuspended in Krebs-tris buffer and homogenized by polytron for ca. 15 sec on ice. Protein was measured (Bradford method, Bio-Rad) and aliquots of 1 mL were prepared and stored at −80° C.
Radioligand binding assays were carried out in a volume of […] (96-well plates) which contained […] of cell membranes, [^3H]-Flumazenil at a concentration of 1 nM for α1, α2, α3 subunits and 0.5 nM for α5 subunits and the test compound in the range of […]. Nonspecific binding was defined by 10^−5 M diazepam and typically represented less than 5% of the total binding. Assays were incubated to equilibrium for 1 hour at 4° C. and harvested onto GF/C uni-filters (Packard) by filtration using a Packard harvester and washing with ice-cold wash buffer (50 mM Tris; pH 7.5). After drying, filter-retained radioactivity was detected by liquid scintillation counting. Ki values were calculated using Excel-Fit (Microsoft) and are the means of two determinations.
In a preferred embodiment the compounds of the invention are binding selective for the α5 subunit relative to the α1, α2 and α3 subunit. Representative test results, obtained by the above described assay measuring binding affinity to HEK293 cells expressing human (h) receptors, are shown in the Table below.

Row | Efficacy (GABA) % (h-GABA-A α5β3γ2 [1]) | Fold increase h-GABA-A α5β3γ2 oocyte (h-GABA-A α5β3γ2 [1]) | Ki (h-GABA-A α5β3γ2 [2]) | Compound
1 | 75% | 1.75 | 0.012 µM | Cn1nnc(-c2ccc(Cl)cc2F)c1Cn1ncc(N2CCN(C3CC3)CC2)cc1=O [Example 17, 2-[[5-(4-chloro-2-fluoro-phenyl)-3-methyl-triazol-4-yl]methyl]-5-(4-cyclopropyl-piperazin-1-yl)pyridazin-3-one]
2 | 79% | 1.79 | 0.0008 µM | Cc1ccc(-c2nnn(C)c2Cn2ncc(N3CCC[C@H]3C)cc2=O)cn1 [Example 18, 2-[[3-methyl-5-(6-methyl-3-pyridyl)triazol-4-yl]methyl]-5-[(2R)-2-methylpyrrolidin-1-yl]pyridazin-3-one]
3 | 137% | 2.37 | 0.0106 µM | COC[C@@H]1CCCN1c1cnn(Cc2c(-c3ccc(C)nc3)nnn2C)c(=O)c1 [Example 19, 5-[(2S)-2-(methoxymethyl)pyrrolidin-1-yl]-2-[[3-methyl-5-(6-methyl-3-pyridyl)triazol-4-yl]methyl]pyridazin-3-one]
4 | 108% | 2.08 | 0.0084 µM | Cc1nnn(-c2ccc(Cl)cc2)c1Cn1ncc(N2C[C@@H](C)O[C@@H](C)C2)cc1=O [Example 20, 2-[[3-(4-chlorophenyl)-5-methyl-triazol-4-yl]methyl]-5-[(2R,6S)-2,6-dimethylmorpholin-4-yl]pyridazin-3-one]
5 | 140% | 2.4 | 0.0087 µM | Cn1nnc(-c2ccc(Cl)cc2F)c1Cn1ncc(N2CCN(C(=O)C3CC3)CC2)cc1=O [Example 21, 2-[[5-(4-chloro-2-fluoro-phenyl)-3-methyl-triazol-4-yl]methyl]-5-[4-(cyclopropanc-carbonyl)piperazin-1-yl]pyridazin-3-one]
6 | 45% | 1.45 | 0.0208 µM | CNc1cnn(Cc2c(-c3ccc(Cl)cc3F)nnn2C)c(=O)c1 [Example 22, 2-[[5-(4-chloro-2-fluoro-phenyl)-3-methyl-triazol-4-yl]methyl]-5-(methylamino)pyridazin-3-one]
7 | 75% | 1.75 | 0.07 µM | CCOC1CN(c2cnn(Cc3c(C)nnn3-c3ccc(Cl)cc3F)c(=O)c2)C1 [Example 23, 2-((1-(4-chloro-2-fluorophenyl)-4-methyl-1H-1,2,3-triazol-5-yl)methyl)-5-(3-ethoxyazetidin-1-yl)pyridazin-3(2H)-one]
8 | 60% | 1.6 | 0.0526 µM | Cc1nnn(-c2ccc(Cl)cc2F)c1Cn1ncc(N2Cc3ccccc3C2)cc1=O [Example 24, 2-[[3-(4-chloro-2-fluoro-phenyl)-5-methyl-triazol-4-yl]methyl]-5-isoindolin-2-yl-pyridazin-3-one]
9 | 97% | 1.97 | 0.0044 µM | Cc1ccc(-n2nnc(C)c2Cn2ncc(N3CCC[C@H]3C)cc2=O)cn1 [Example 25, 2-[[5-methyl-3-(6-methyl-3-pyridyl)triazol-4-yl]methyl]-5-[(2R)-2-methylpyrrolidin-1-yl]pyridazin-3-one]
10 | 55% | 1.55 | 0.0128 µM | COC1CN(c2cnn(Cc3c(-c4ccc(Cl)cc4F)nnn3C)c(=O)c2)C1 [Example 26, 2-[[5-(4-chloro-2-fluoro-phenyl)-3-methyl-triazol-4-yl]methyl]-5-(3-methoxyazetidin-1-yl)pyridazin-3-one]
11 | 69% | 1.69 | 0.0082 µM | CCOC1CN(c2cnn(Cc3c(-c4ccc(Cl)cc4F)nnn3C)c(=O)c2)C1 [Example 27, 2-[[5-(4-chloro-2-fluoro-phenyl)-3-methyl-triazol-4-yl]methyl]-5-(3-ethoxyazetidin-1-yl)pyridazin-3-one]
12 | 115% | 2.15 | 0.0184 µM | Cn1nnc(-c2ccc(Cl)cc2F)c1Cn1ncc(N2CC(OCC3CC3)C2)cc1=O [Example 28, 2-[[5-(4-chloro-2-fluoro-phenyl)-3-methyl-triazol-4-yl]methyl]-5-[3-(cyclopropyl-methoxy)azetidin-1-yl]pyridazin-3-one]
13 | 49% | 1.49 | 0.0152 µM | Cn1nnc(-c2ccc(Cl)cc2F)c1Cn1ncc(N2CC3(CCCO3)C2)cc1=O [Example 29, 2-[[5-(4-chloro-2-fluoro-phenyl)-3-methyl-triazol-4-yl]methyl]-5-(5-oxa-2-azaspiro[3.4]octan-2-yl)pyridazin-3-one]
14 | 110% | 2.1 | 0.0031 µM | C[C@@H]1CN(c2cnn(Cc3c(-c4ccc(Cl)cc4)nnn3C)c(=O)c2)C[C@H](C)O1 [Example 30, 2-[[5-(4-chlorophenyl)-3-methyl-triazol-4-yl]methyl]-5-[(2R,6S)-2,6-dimethylmorpholin-4-yl]pyridazin-3-one]
15 | 35% | 1.35 | 0.0172 µM | CN(C)c1cnn(Cc2c(-c3ccc(Cl)cc3)nnn2C)c(=O)c1 [Example 31, 2-[[5-(4-chlorophenyl)-3-methyl-triazol-4-yl]methyl]-5-(dimethylamino)pyridazin-3-one]
16 | 98% | 1.98 | 0.0464 µM | CO[C@@H]1COC2(C1)CN(c1cnn(Cc3c(-c4ccc(Cl)cc4F)nnn3C)c(=O)c1)C2 [Example 32, (S)-2-((4-(4-chloro-2-fluorophenyl)-1-methyl-1H-1,2,3-triazol-5-yl)methyl)-5-(7-methoxy-5-oxa-2-azaspiro[3.4]octan-2-yl)pyridazin-3(2H)-one]
17 | 61% | 1.61 | 0.0167 µM | CO[C@H]1COC2(C1)CN(c1cnn(Cc3c(-c4ccc(Cl)cc4F)nnn3C)c(=O)c1)C2 [Example 33, (R)-2-((4-(4-chloro-2-fluorophenyl)-1-methyl-1H-1,2,3-triazol-5-yl)methyl)-5-(7-methoxy-5-oxa-2-azaspiro[3.4]octan-2-yl)pyridazin-3(2H)-one]
